According to ChEMBL document CHEMBL4482315, “In vivo imaging of sulfotransferases” (2013):
One block for each compound: values may come before it.

What was measured:
Sulfotransferase 1E1 [1] = target: T1, Sulfotransferase 1E1 (Homo sapiens, UniProt P49888); assay: Substrate activity at SULT1E1 (unknown origin) expressed in baculovirus infected Sf9 cells assessed as substrate Vmax/Km ratio level incubated for 15 mins using [35S-]PAPS as sulfate donor by TLC analysis; conditions: sf9, 0.25 h
T1 sequence (P49888 whole entry): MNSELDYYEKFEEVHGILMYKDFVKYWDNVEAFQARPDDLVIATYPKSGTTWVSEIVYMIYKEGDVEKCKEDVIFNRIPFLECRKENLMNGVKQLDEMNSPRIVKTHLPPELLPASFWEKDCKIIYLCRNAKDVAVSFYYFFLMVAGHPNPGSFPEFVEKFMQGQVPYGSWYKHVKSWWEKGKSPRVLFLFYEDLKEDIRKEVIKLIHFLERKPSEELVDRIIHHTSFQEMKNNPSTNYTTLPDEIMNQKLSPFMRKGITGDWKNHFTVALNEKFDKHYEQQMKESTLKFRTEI

Sulfotransferase 2A1 [2] = target: T2, Sulfotransferase 2A1 (Homo sapiens, UniProt Q06520); assay: Substrate activity at SULT2A1 (unknown origin) expressed in baculovirus infected Sf9 cells assessed as substrate Km incubated for 15 mins using [35S-]PAPS as sulfate donor by TLC analysis; conditions: sf9, 0.25 h, BLD = below limit of detection
T2 sequence (Q06520 whole entry): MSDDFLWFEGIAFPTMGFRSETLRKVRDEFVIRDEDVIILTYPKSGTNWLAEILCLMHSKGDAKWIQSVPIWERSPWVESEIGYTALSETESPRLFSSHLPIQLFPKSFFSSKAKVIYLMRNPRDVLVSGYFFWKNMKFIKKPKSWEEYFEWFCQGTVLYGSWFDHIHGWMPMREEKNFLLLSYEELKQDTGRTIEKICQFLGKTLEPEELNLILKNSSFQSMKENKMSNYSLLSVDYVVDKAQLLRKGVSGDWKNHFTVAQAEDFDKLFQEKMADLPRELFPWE

Sulfotransferase 2A1 [3] = target: T2, Sulfotransferase 2A1; assay: Substrate activity at SULT2A1 (unknown origin) expressed in baculovirus infected Sf9 cells assessed as substrate Vmax incubated for 15 mins using [35S-]PAPS as sulfate donor by TLC analysis; conditions: sf9, 0.25 h, BLD = below limit of detection
Sulfotransferase 2A1 [4] = target: T2, Sulfotransferase 2A1; assay: Substrate activity at SULT2A1 (unknown origin) expressed in baculovirus infected Sf9 cells assessed as substrate Vmax/Km ratio incubated for 15 mins using [35S-]PAPS as sulfate donor by TLC analysis; conditions: sf9, 0.25 h, BLD = below limit of detection
Sulfotransferase 1A1 [5] = target: T3, Sulfotransferase 1A1 (Homo sapiens, UniProt P50225); assay: Substrate activity at SULT1A1 (unknown origin) expressed in baculovirus infected Sf9 cells assessed as substrate Km incubated for 15 mins using [35S-]PAPS as sulfate donor by TLC analysis; conditions: sf9, 0.25 h, BLD = below limit of detection
Sulfotransferase 1A1 [6] = target: T3, Sulfotransferase 1A1; assay: Substrate activity at SULT1A1 (unknown origin) expressed in baculovirus infected Sf9 cells assessed as substrate Vmax incubated for 15 mins using [35S-]PAPS as sulfate donor by TLC analysis; conditions: sf9, 0.25 h, BLD = below limit of detection
Sulfotransferase 1A1 [7] = target: T3, Sulfotransferase 1A1; assay: Substrate activity at SULT1A1 (unknown origin) expressed in baculovirus infected Sf9 cells assessed as substrate Vmax/Km ratio incubated for 15 mins using [35S-]PAPS as sulfate donor by TLC analysis; conditions: sf9, 0.25 h, BLD = below limit of detection
Sulfotransferase 1E1 [8] = target: T1, Sulfotransferase 1E1; assay: Substrate activity at SULT1E1 (unknown origin) expressed in baculovirus infected Sf9 cells assessed as substrate Km incubated for 15 mins using [35S-]PAPS as sulfate donor by TLC analysis; conditions: sf9, 0.25 h, BLD = below limit of detection
Sulfotransferase 1E1 [9] = target: T1, Sulfotransferase 1E1; assay: Substrate activity at SULT1E1 (unknown origin) expressed in baculovirus infected Sf9 cells assessed as substrate Vmax incubated for 15 mins using [35S-]PAPS as sulfate donor by TLC analysis; conditions: sf9, 0.25 h, BLD = below limit of detection
[10] = Drug uptake in lung of Sprague-Dawley rat with lung inflammation assessed as sulfated form formation at 2 to 2.5 mCi dosed via injection measured after 10 to 15 mins post dose by microPET imaging method; format: ADME, organism-based; conditions: in vivo
[11] = Drug uptake in liver of smoker human subject at 10.5 mCi by microPET imaging method; format: ADME
[12] = Drug uptake in kidney of smoker human subject at 10.5 mCi by microPET imaging method; format: ADME
[13] = Drug uptake in lung of smoker human subject at 10.5 mCi by microPET imaging method; format: ADME
[14] = Drug uptake in liver of non-smoker human subject at 10 mCi by microPET imaging method; format: ADME
[15] = Drug uptake in kidney of non-smoker human subject at 10 mCi by microPET imaging method; format: ADME
[16] = Drug uptake in lung of non-smoker human subject at 10 mCi by microPET imaging method; format: ADME

T3 sequence (P50225 whole entry): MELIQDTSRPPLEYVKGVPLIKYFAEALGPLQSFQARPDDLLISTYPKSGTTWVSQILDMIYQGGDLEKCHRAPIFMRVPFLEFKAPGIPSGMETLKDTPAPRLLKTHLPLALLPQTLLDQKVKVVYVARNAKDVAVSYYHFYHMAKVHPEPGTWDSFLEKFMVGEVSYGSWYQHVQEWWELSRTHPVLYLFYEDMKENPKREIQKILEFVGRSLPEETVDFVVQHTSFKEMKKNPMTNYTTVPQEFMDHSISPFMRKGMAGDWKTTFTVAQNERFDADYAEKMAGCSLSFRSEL

Vmax/Km (Sulfotransferase 1E1 [1]): 0.25
Km (Sulfotransferase 2A1 [2]): Bld
Vmax (Sulfotransferase 2A1 [3]): Bld
Vmax/Km (Sulfotransferase 2A1 [4]): Bld
SMILES: Oc1ccc2ccsc2c1

Vmax/Km (Sulfotransferase 1E1 [1]): 0.03
Km (Sulfotransferase 2A1 [2]): Bld
Vmax (Sulfotransferase 2A1 [3]): Bld
Vmax/Km (Sulfotransferase 2A1 [4]): Bld
SMILES: Oc1ccc2ccoc2c1

Vmax/Km (Sulfotransferase 1E1 [1]): 0.3
Km (Sulfotransferase 2A1 [2]): Bld
Vmax (Sulfotransferase 2A1 [3]): Bld
Vmax/Km (Sulfotransferase 2A1 [4]): Bld
SMILES: Cc1nc2cc(O)ccc2s1

Vmax/Km (Sulfotransferase 1E1 [1]): 0.08
Km (Sulfotransferase 2A1 [2]): Bld
Vmax (Sulfotransferase 2A1 [3]): Bld
Vmax/Km (Sulfotransferase 2A1 [4]): Bld
SMILES: Oc1ccc2sccc2c1

Vmax/Km (Sulfotransferase 1E1 [1]): 1.39
Km (Sulfotransferase 2A1 [2]): Bld
Vmax (Sulfotransferase 2A1 [3]): Bld
Vmax/Km (Sulfotransferase 2A1 [4]): Bld
SMILES: CNc1ccc(-c2nc3cc(O)ccc3s2)cc1

Vmax/Km (Sulfotransferase 1E1 [1]): 3.22
Km (Sulfotransferase 2A1 [2]): Bld
Vmax (Sulfotransferase 2A1 [3]): Bld
Vmax/Km (Sulfotransferase 2A1 [4]): Bld
SMILES: Oc1ccc2nc(-c3ccccc3)sc2c1

Vmax/Km (Sulfotransferase 1E1 [1]): 0.04
Km (Sulfotransferase 2A1 [2]): Bld
Vmax (Sulfotransferase 2A1 [3]): Bld
Vmax/Km (Sulfotransferase 2A1 [4]): Bld
SMILES: Oc1ccc2ncsc2c1

Vmax/Km (Sulfotransferase 1E1 [1]): 0.006
Km (Sulfotransferase 2A1 [2]): Bld
Vmax (Sulfotransferase 2A1 [3]): Bld
Vmax/Km (Sulfotransferase 2A1 [4]): Bld
SMILES: Oc1ccc2ncoc2c1

Km (Sulfotransferase 1E1 [8]): Bld
Vmax (Sulfotransferase 1E1 [9]): Bld
Vmax/Km (Sulfotransferase 1E1 [1]; BLD = below limit of detection): Bld
Km (Sulfotransferase 2A1 [2]): Bld
Vmax (Sulfotransferase 2A1 [3]): Bld
Vmax/Km (Sulfotransferase 2A1 [4]): Bld
SMILES: Oc1ccc2[nH]ccc2c1

Vmax/Km (Sulfotransferase 1E1 [1]): 0.47
Km (Sulfotransferase 2A1 [2]): Bld
Vmax (Sulfotransferase 2A1 [3]): Bld
Vmax/Km (Sulfotransferase 2A1 [4]): Bld
SMILES: Cc1nc2ccc(O)cc2s1

Vmax/Km (Sulfotransferase 1E1 [1]): 0.01
Km (Sulfotransferase 2A1 [2]): Bld
Vmax (Sulfotransferase 2A1 [3]): Bld
Vmax/Km (Sulfotransferase 2A1 [4]): Bld
SMILES: Oc1ccc2occc2c1

Km (Sulfotransferase 1E1 [8]): Bld
Vmax (Sulfotransferase 1E1 [9]): Bld
Vmax/Km (Sulfotransferase 1E1 [1]; BLD = below limit of detection): Bld
Km (Sulfotransferase 2A1 [2]): Bld
Vmax (Sulfotransferase 2A1 [3]): Bld
Vmax/Km (Sulfotransferase 2A1 [4]): Bld
SMILES: Oc1ccc2cc[nH]c2c1

Continued, compound first:

SMILES: CN(C)c1ccc(-c2nc3cc(O)ccc3s2)cc1
Vmax/Km (Sulfotransferase 1E1 [1]): 2.47
Km (Sulfotransferase 2A1 [2]): Bld
Vmax (Sulfotransferase 2A1 [3]): Bld
Vmax/Km (Sulfotransferase 2A1 [4]): Bld

SMILES: COc1ccc(-c2nc3ccc(O)cc3s2)cc1
Km (Sulfotransferase 1A1 [5]): Bld
Vmax (Sulfotransferase 1A1 [6]): Bld
Vmax/Km (Sulfotransferase 1A1 [7]): Bld
Vmax/Km (Sulfotransferase 1E1 [1]): 2.19
Km (Sulfotransferase 2A1 [2]): Bld
Vmax (Sulfotransferase 2A1 [3]): Bld
Vmax/Km (Sulfotransferase 2A1 [4]): Bld

SMILES: CC(=O)Nc1ccc(-c2nc3ccc(O)cc3s2)cc1
Km (Sulfotransferase 1A1 [5]): Bld
Vmax (Sulfotransferase 1A1 [6]): Bld
Vmax/Km (Sulfotransferase 1A1 [7]): Bld
Vmax/Km (Sulfotransferase 1E1 [1]): 0.87
Km (Sulfotransferase 2A1 [2]): Bld
Vmax (Sulfotransferase 2A1 [3]): Bld
Vmax/Km (Sulfotransferase 2A1 [4]): Bld

SMILES: O=[N+]([O-])c1ccc(-c2nc3ccc(O)cc3s2)cc1
Km (Sulfotransferase 1A1 [5]): Bld
Vmax (Sulfotransferase 1A1 [6]): Bld
Vmax/Km (Sulfotransferase 1A1 [7]): Bld
Vmax/Km (Sulfotransferase 1E1 [1]): 29.2
Km (Sulfotransferase 2A1 [2]): Bld
Vmax (Sulfotransferase 2A1 [3]): Bld
Vmax/Km (Sulfotransferase 2A1 [4]): Bld

SMILES: Oc1ccc2nc(-c3ccc(I)cc3)sc2c1
Km (Sulfotransferase 1A1 [5]): Bld
Vmax (Sulfotransferase 1A1 [6]): Bld
Vmax/Km (Sulfotransferase 1A1 [7]): Bld
Vmax/Km (Sulfotransferase 1E1 [1]): 5.64
Km (Sulfotransferase 2A1 [2]): Bld
Vmax (Sulfotransferase 2A1 [3]): Bld
Vmax/Km (Sulfotransferase 2A1 [4]): Bld

SMILES: Oc1ccc2[nH]cnc2c1
Km (Sulfotransferase 1E1 [8]): Bld
Vmax (Sulfotransferase 1E1 [9]): Bld
Vmax/Km (Sulfotransferase 1E1 [1]; BLD = below limit of detection): Bld
Km (Sulfotransferase 2A1 [2]): Bld
Vmax (Sulfotransferase 2A1 [3]): Bld
Vmax/Km (Sulfotransferase 2A1 [4]): Bld

SMILES: N#Cc1ccc(-c2nc3ccc(O)cc3s2)cc1
Km (Sulfotransferase 1A1 [5]): Bld
Vmax (Sulfotransferase 1A1 [6]): Bld
Vmax/Km (Sulfotransferase 1A1 [7]): Bld
Vmax/Km (Sulfotransferase 1E1 [1]): 17.1
Km (Sulfotransferase 2A1 [2]): Bld
Vmax (Sulfotransferase 2A1 [3]): Bld
Vmax/Km (Sulfotransferase 2A1 [4]): Bld

SMILES: CN(C)c1ccc(-c2nc3ccc(O)cc3s2)cc1
Km (Sulfotransferase 1A1 [5]): Bld
Vmax (Sulfotransferase 1A1 [6]): Bld
Vmax/Km (Sulfotransferase 1A1 [7]): Bld
Vmax/Km (Sulfotransferase 1E1 [1]): 1.11
Km (Sulfotransferase 2A1 [2]): Bld
Vmax (Sulfotransferase 2A1 [3]): Bld
Vmax/Km (Sulfotransferase 2A1 [4]): Bld

SMILES: [11CH3]Nc1ccc(-c2nc3ccc(O)cc3s2)cc1 [PITTSBURGH COMPOUND B]
Drug uptake [10]: Active
Drug uptake [11]: Active
Drug uptake [12]: Active
Drug uptake [13]: Active
Drug uptake [14]: Active
Drug uptake [15]: Active
Drug uptake [16]: Active

SMILES: Oc1ccc2nc(-c3ccc(F)cc3)sc2c1
Km (Sulfotransferase 1A1 [5]): Bld
Vmax (Sulfotransferase 1A1 [6]): Bld
Vmax/Km (Sulfotransferase 1A1 [7]): Bld
Vmax/Km (Sulfotransferase 1E1 [1]): 4.52
Km (Sulfotransferase 2A1 [2]): Bld
Vmax (Sulfotransferase 2A1 [3]): Bld
Vmax/Km (Sulfotransferase 2A1 [4]): Bld

SMILES: Oc1ccc2ccccc2c1 [BETANAPHTHOL]
Vmax/Km (Sulfotransferase 1E1 [1]): 0.57

SMILES: Nc1ccc(-c2nc3ccc(O)cc3s2)cc1
Km (Sulfotransferase 1A1 [5]): Bld
Vmax (Sulfotransferase 1A1 [6]): Bld
Vmax/Km (Sulfotransferase 1A1 [7]): Bld
Vmax/Km (Sulfotransferase 1E1 [1]): 1.7
Km (Sulfotransferase 2A1 [2]): Bld
Vmax (Sulfotransferase 2A1 [3]): Bld
Vmax/Km (Sulfotransferase 2A1 [4]): Bld

SMILES: CS(=O)(=O)c1ccc(-c2nc3ccc(O)cc3s2)cc1
Km (Sulfotransferase 1A1 [5]): Bld
Vmax (Sulfotransferase 1A1 [6]): Bld
Vmax/Km (Sulfotransferase 1A1 [7]): Bld
Vmax/Km (Sulfotransferase 1E1 [1]): 2.69
Km (Sulfotransferase 2A1 [2]): Bld
Vmax (Sulfotransferase 2A1 [3]): Bld
Vmax/Km (Sulfotransferase 2A1 [4]): Bld

SMILES: CNc1ccc(-c2nc3ccc(O)cc3s2)cc1 [PITTSBURGH COMPOUND B UNLABELLED]
Km (Sulfotransferase 1A1 [5]): Bld
Vmax (Sulfotransferase 1A1 [6]): Bld
Vmax/Km (Sulfotransferase 1A1 [7]): Bld
Vmax/Km (Sulfotransferase 1E1 [1]): 1.28
Km (Sulfotransferase 2A1 [2]): Bld
Vmax (Sulfotransferase 2A1 [3]): Bld
Vmax/Km (Sulfotransferase 2A1 [4]): Bld
